Data taken from patent publication US12419305B2, “Antimicrobial compositions” (Firmenich SA, priority 2018, dated 2025).
Where two headings read alike, the source gives them in different places.

System: C. xerosis ATCC 373
Test: BCT test (bacterial contact time), 120 s, log reduction / effect fraction; CI by Compusyn
Format: cell-based
Conditions: Corynebacterium xerosis, ATCC373, 2 min; for log reduction at 0.5 % strength: dose 0.5% w/v; for log reduction at 0.75 % strength: dose 0.75% w/v; for log reduction at 1 % strength: dose 1.0% w/v; for log reduction at 1.25 % strength: dose 1.25% w/v; for log reduction at 1.5 % strength: dose 1.5% w/v; for log reduction at 0.6 % strength: dose 0.6% w/v; for log reduction at 0.1 % strength: dose 0.1% w/v; for log reduction at 0.15 % strength: dose 0.15% w/v
Protocol: C. xerosis: Suspensions of the C. xerosis ATCC 373 strain were prepared as follows: Stock cultures (stored at −80° C.) were thawed and subcultured onto Tryptic Soy Agar media with Tween 80 (TSA-TW80), and incubated at 37° C. for 48 h. The primary cultures were subcultured onto TSA-TW80 again, to prepare the secondary cultures. Single colonies of the secondary cultures were selected and used to inoculate 30 ml brain heart infusion broth with Tween 80 (BHI-TW80). The inoculated broth was incubated at 37° C. at 180 rpm for 24 h. Aliquots (1 ml) of the 24 h culture were inoculated into 30 ml of fresh BHI-TW80 broth media, and incubated at 37° C. at 180 rpm for 48 h. Aliquots (2-3 ml) of the 48 h culture were inoculated into four 50 ml of fresh BHI-TW80 broth media, and incubated at 37° C. 180 rpm for 4-6 hrs. When the OD 600 nm reached the target value of 1.6, cells were harvested by centrifugation at 5000 rpm for 10 min, and then resuspended in the same fresh BHI-TW80 at a concentration of 10^9 to 10^10 cfu/mL. This suspension was used as the bacterial suspension for the BCT test.
BCT Test: Test compositions at a range of concentrations (either combinations of more than one perfume ingredient, and comparative compositions comprising the single perfume ingredients) were prepared in ethanol. Five replicates of each test composition were added into 96-well microtiter plates (120 μl per well), with row B containing control compositions containing the ethanol solution alone. 120 μl of bacterial cell suspensions at a concentration of approximately 1×10^8 bacteria per mL (as prepared above) were added to each well of the microtiter plate. The bacterial suspensions were incubated with the test solutions for 45, 60, or 120 seconds. Following the incubation of the bacterial suspensions with the test solutions, serial dilutions of the bacterial suspensions were generated (three serial 1:10 dilutions, followed by 17 serial 1:2 dilutions), in multiwell microtiter plates.
Each plate was sealed and incubated at 37° C. under agitation (180 rpm). After incubation, the turbidity of the wells (OD600 nm) was determined using a Tecan microplate reader. Turbid wells were regarded as positive growth, due to the presence of viable cells. The total number of viable cells (log CFU) for each sample was calculated. And the log reduction for each test composition at the final concentration (dose) was calculated against the control sample of the ethanol solution.
Determination of Synergy via the Combination Index (CI): The CI was calculated using Compusyn software (ComboSyn, Inc., as created by Dr. Dorothy Chou in 2005), according to the manufacturer's instructions. The concentration of each test composition (combinations of more than one perfume ingredient, and comparative compositions comprising the single perfume ingredients used to generate the combination) and their corresponding effect fraction was entered, and the corresponding CI calculated.
When the calculated CI values were less than 0.9, the combination of perfume ingredients was regarded as having synergistic effect. When the calculated CI was between 1.0 a 0.9, the combination of perfume ingredients was regarded as having an additive effect. When the calculated CI was greater than 1.0, the combination of perfume ingredients was regarded as having an antagonistic effect.

[1] = dose 0.25% w/v, contact 120 s, 25% EtOH, read-out: Log reduction
[2] = dose 0.4% w/v, contact 120 s, 25% EtOH, read-out: Log reduction
[3] = dose 0.2% w/v, contact 120 s, 25% EtOH, read-out: Log reduction
[4] = dose 0.3% w/v, contact 120 s, 25% EtOH, read-out: Log reduction

CC(=O)OCc1ccccc1 [Benzyl acetate, benzyl acetate]
log reduction at 0.25 % strength [1]: 0
log reduction at 0.4 % strength [2]: 1.1
log reduction at 0.5 % strength (contact 120 s, 25% EtOH): 2.8
log reduction at 0.75 % strength (contact 120 s, 25% EtOH): 4.6
log reduction at 1 % strength (contact 120 s, 25% EtOH): 5.2

Cc1ccc2c(c1)OCC(=O)CO2 [Calone, 7-methyl-2H-1,5-benzodioxepin-3(4H)-one]
log reduction at 0.5 % strength (contact 120 s, 25% EtOH): 0.2
log reduction at 0.75 % strength (contact 120 s, 25% EtOH): 0.6
log reduction at 1 % strength (contact 120 s, 25% EtOH): 3.2
log reduction at 1.25 % strength (contact 120 s, 25% EtOH): 6
log reduction at 1.5 % strength (contact 120 s, 25% EtOH): 6.8

OC/C=C/c1ccccc1 [Cinnamic alcohol, (2E)-3-phenyl-2-propen-1-ol]
log reduction at 0.25 % strength [1]: 0
log reduction at 0.5 % strength (contact 120 s, 25% EtOH): 2.9
log reduction at 0.6 % strength (contact 120 s, 25% EtOH): 4.3
log reduction at 0.7 % strength (dose 0.7% w/v, contact 120 s, 25% EtOH): 6
log reduction at 0.8 % strength (dose 0.8% w/v, contact 120 s, 25% EtOH): 7.2

O=c1ccc2ccccc2o1 [Coumarine, 2H-chromen-2-one]
log reduction at 0.75 % strength (contact 120 s, 25% EtOH): -0.2
log reduction at 1 % strength (contact 120 s, 25% EtOH): 0.8
log reduction at 1.25 % strength (contact 120 s, 25% EtOH): 2.6
log reduction at 1.5 % strength (contact 120 s, 25% EtOH): 2.7

CCCCCCC1CCC(=O)O1 (stereo not shown) [Decal]
log reduction at 0.1 % strength (contact 120 s, 25% EtOH): 0.1
log reduction at 0.15 % strength (contact 120 s, 25% EtOH): 2.2
log reduction at 0.2 % strength [3]: 4.6
log reduction at 0.25 % strength [1]: 5.4
log reduction at 0.3 % strength [4]: 6.1

C=CCc1ccc(O)c(OC)c1 [Eugenol F, 2-Methoxy-4-(prop-2-en-1-yl)phenol]
log reduction at 0.1 % strength (contact 120 s, 25% EtOH): 0.1
log reduction at 0.2 % strength [3]: 0.4
log reduction at 0.25 % strength [1]: 1.8
log reduction at 0.3 % strength [4]: 2.7
log reduction at 0.4 % strength [2]: 5.1
log reduction at 0.5 % strength (contact 120 s, 25% EtOH): 6.3

CC(C)=CCC/C(C)=C/CO [Geraniol Pur]
log reduction at 0.1 % strength (contact 120 s, 25% EtOH): 0.9
log reduction at 0.125 % strength (dose 0.125% w/v, contact 120 s, 25% EtOH): 3.6
log reduction at 0.15 % strength (contact 120 s, 25% EtOH): 4.8
log reduction at 0.175 % strength (dose 0.175% w/v, contact 120 s, 25% EtOH): 6.8
log reduction at 0.2 % strength [3]: 7

CC(C=O)Cc1ccc2c(c1)OCO2 (stereo not shown) [Heliopropanal, 3-(1,3-Benzodioxol-5-yl)-2-methylpropanal]
log reduction at 0.2 % strength: 0.1
log reduction at 0.25 % strength: 0.3
log reduction at 0.3 % strength: 1.4
log reduction at 0.35 % strength: 1.8
log reduction at 0.4 % strength: 2.2

C/C=C/c1ccc(O)c(OC)c1 [Isoeugenol, 2-Methoxy-4-(prop-1-en-1-yl)phenol]
log reduction at 0.25 % strength [1]: 2.4
log reduction at 0.3 % strength [4]: 3.4
log reduction at 0.4 % strength [2]: 5
log reduction at 0.5 % strength (contact 120 s, 25% EtOH): 6.3
log reduction at 0.6 % strength (contact 120 s, 25% EtOH): 6.6

CC(C)=CCC/C(C)=C\CO [Nerol, (Z)-3,7-dimethyl-2,6-octadien-1-ol]
log reduction at 0.08 % strength (dose 0.08% w/v, contact 120 s, 25% EtOH): -0.1
log reduction at 0.1 % strength (contact 120 s, 25% EtOH): 0.5
log reduction at 0.12 % strength (dose 0.12% w/v, contact 120 s, 25% EtOH): 2.6
log reduction at 0.14 % strength (dose 0.14% w/v, contact 120 s, 25% EtOH): 4.9
log reduction at 0.16 % strength (dose 0.16% w/v, contact 120 s, 25% EtOH): 7.2

C=C(C)[C@@H]1CC=C(CO)CC1 [Perycorolle, (S)-(−)-(4-Isopropenyl-1-cyclohexenyl)methanol]
log reduction at 0.1 % strength (contact 120 s, 25% EtOH): 0.2
log reduction at 0.15 % strength (contact 120 s, 25% EtOH): 3.4
log reduction at 0.2 % strength [3]: 4.8
log reduction at 0.25 % strength [1]: 6.5
log reduction at 0.3 % strength [4]: 6.4

CC(CCO)CCc1ccccc1 (stereo not shown) [Phenylhexanol, 3-methyl-5-phenyl-1-pentanol]
log reduction at 0.15 % strength (contact 120 s, 25% EtOH): 2.5
log reduction at 0.2 % strength [3]: 4.2
log reduction at 0.25 % strength [1]: 5.1
log reduction at 0.3 % strength [4]: 5.9

CC1=CCC(C(C)(C)O)CC1 (stereo not shown) [Terpineol Ord, 2-(4-Methylcyclohex-3-en-1-yl)propan-2-ol]
log reduction at 0.25 % strength [1]: 2.9
log reduction at 0.3 % strength [4]: 3.9
log reduction at 0.35 % strength (dose 0.35% w/v, contact 120 s, 25% EtOH, read-out: Log reduction): 6
log reduction at 0.4 % strength [2]: 6.4

CCC(C)(O)CCCC(C)C (stereo not shown) [Tetralinol, 3,7-Dimethyl-3-octanol]
log reduction at 0.05 % strength (dose 0.05% w/v, contact 120 s, 25% EtOH): 0.1
log reduction at 0.2 % strength [3]: 5.7
log reduction at 0.25 % strength [1]: 6.4
log reduction at 0.3 % strength [4]: 6.5
